Measured values as given in PubChem BioAssay (NCI).
Several values for one entry are separate records, joined by “and”; a condition that tells them apart may be missing. Identical values can stand only once.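 The compound was tested at five concentrations on cells cultured in 96-well plates, with a 48-hour exposure period. GI50 = concentration required for 50% inhibition of growth. TGI is the concentration that stops growth completely.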

Legend:
Experiment in all cases: NCI tumour cell line growth inhibition, 48 h
TK-10 renal = test system: TK-10 renal
MOLT-4 leukemia = test system: MOLT-4 leukemia
M14 melanoma = test system: M14 melanoma
SK-MEL-28 melanoma = test system: SK-MEL-28 melanoma
HCC-2998 colon = test system: HCC-2998 colon
EKVX NSCLC = test system: EKVX NSCLC
NCI-H226 lung = test system: NCI-H226 lung
SN12C renal = test system: SN12C renal
MDA-MB-231 breast = test system: MDA-MB-231 breast
HOP-62 NSCLC = test system: HOP-62 NSCLC

| SMILES | GI50 (TK-10 renal) [µM] | TGI (TK-10 renal) | GI50 (MOLT-4 leukemia) [µM] | TGI (MOLT-4 leukemia) [µM] | GI50 (M14 melanoma) [µM] | TGI (M14 melanoma) | GI50 (SK-MEL-28 melanoma) [µM] | TGI (SK-MEL-28 melanoma) [µM] | GI50 (HCC-2998 colon) [µM] | TGI (HCC-2998 colon) | GI50 (EKVX NSCLC) [µM] | TGI (EKVX NSCLC) [µM] | GI50 (NCI-H226 lung) [µM] | TGI (NCI-H226 lung) | GI50 (SN12C renal) [µM] | TGI (SN12C renal) | GI50 (MDA-MB-231 breast) [µM] | TGI (MDA-MB-231 breast) | GI50 (HOP-62 NSCLC) [µM] | TGI (HOP-62 NSCLC) |
| --- | --- | --- | --- | --- | --- | --- | --- | --- | --- | --- | --- | --- | --- | --- | --- | --- | --- | --- | --- | --- |
| O=C1C(Nc2ccc(Cl)cc2)=C(I)C(=O)c2ncccc21 | 1.59 | 2.94 µM | 0.964 | 9.32 | 0.828 | 2.26 µM | 1.64 | 3.02 | 1.77 | 3.74 µM | 1.71 | 3.32 | 1.52 | 3.03 µM | 1.47 | 2.99 µM | 1.31 | 2.7 µM | 1.79 | 4.74 µM |
| Cc1cc(NC(=O)NC(=O)c2ccccc2NC(=O)C(C)N)ccc1Oc1ncc(Br)cn1 (centres undefined) |  | 39.4 µM |  | 52.2 |  | 3.71 µM |  | 37.4 |  | 4.38 µM |  | 28.6 |  | 2.88 µM |  | 19.5 µM |  | 11.8 µM |  | 4.3 µM |
| O=C(Nc1ccc(Br)cc1F)c1cc(I)ccc1O | 4.77 | 9.43 µM | 2.66 | 7.48 | 2.88 | 13.1 µM | 2.62 | 11.3 | 3.14 | 12.7 µM | 2.25 | 28.6 | 1.9 | 5.48 µM | 2.75 | 9.91 µM | 1.77 | 6.28 µM | 2.27 | 8.15 µM |
| COc1ccc2c(CN3CCCC[C@H]3C(=O)O)cc3cc4c(cc3c2c1)OCO4 | 5.47 | 60.2 µM | 0.278 | 2.3 | 3.72 | 10.5 µM | 0.7 | 2.33 | 3.56 | > 100 µM | 3 | 6.77 | 1.42 | 3.13 µM | 1 | 4.31 µM | 0.799 | 3.59 µM | 4.33 | > 100 µM |
| O=C1Nc2ccc(Br)cc2C1=Nc1cccnc1 |  | > 100 µM |  | 64.5 |  | 31.5 µM |  | 42 |  | 40 µM |  | 65.1 |  | > 100 µM |  | 37.9 µM |  | 37.6 µM |  | 74.2 µM |
| CSC1=C(N)C(=O)c2[nH]cc(CO)c2C1=N | 1.37 | 2.72 µM | 0.204 | 0.475 | 0.139 | 0.285 µM | 0.267 | 0.618 | 0.173 | 0.338 µM | 0.26 | 1.22 | 0.206 | 0.45 µM | 0.16 | 0.317 µM | 0.236 | 0.669 µM | 0.193 | 0.342 µM |
| C[C@H]1CC[C@@]2(NC1)O[C@H]1C[C@H]3[C@@H]4CC[C@H]5C[C@@H](O)CC[C@]5(C)[C@H]4CC[C@]3(C)[C@H]1[C@@H]2C | 11.1 | 25.3 µM and > 100 µM | > 50 | > 100 | 18.1 | 50 µM and > 100 µM | 17.9 | 50 | 9.32 | 22 µM and > 100 µM |  | > 100 | 13.8 | 35.8 µM and > 100 µM | 11.2 | 29.9 µM and > 100 µM | 7.26 | 15.9 µM and > 100 µM | 9.72 | 19.4 µM and > 100 µM |
| COc1cc2nc(N3CCCC3)nc(NCc3ccccc3)c2cc1OC | 1.9 | 3.71 µM | 2.89 | 9.1 | 1.81 | 3.49 µM | 1.75 | 3.19 | 2.13 | 4.25 µM | 6.04 | 19.2 | 17.3 | 40.4 µM | 8.09 | 21.7 µM | 2.1 | 4.48 µM | 12.3 | 26.9 µM |
| Nc1ncnc2c1N=C(c1ccc3c(c1)OCO3)CC(c1ccc([N+](=O)[O-])cc1)N2 (centres undefined) | 80.9 | > 100 µM | 23.7 | > 100 | > 100 | > 100 µM | > 100 | > 100 | 66.1 | > 100 µM | 92.6 | > 100 | > 100 | > 100 µM | 82.6 | > 100 µM | 38.9 | > 100 µM | 67.6 | > 100 µM |
| CC1=C(c2cccc(O)c2)[C@H](c2ccc(OCCN3CC(CF)C3)cc2)Oc2ccc(O)cc21 | 12 | 25.1 µM | 3.59 | 16 | 2.93 | 9.45 µM | 5.3 | 18 | 3.84 | 15.4 µM | 9.61 | 21.7 | 10.7 | 28.2 µM | 7.42 | 21.3 µM | 4.87 | 17.4 µM | 11 | 27.5 µM |
| CN1CCN(C(=O)C(C)(C)c2ccc(C(=O)Nc3cn4cc(-c5ccncc5)ccc4n3)cc2)CC1 | 0.484 | > 100 µM | 0.319 | > 46.7 | 0.389 | 22.8 µM | 0.343 | 6.47 | 0.502 | 9.7 µM | 0.491 | > 100 | 0.32 | 2.51 µM | 0.267 | > 100 µM | 0.413 | > 54.1 µM | 0.307 | > 53 µM |
| C[C@@H]1[C@H](C)N1CC(O)Cn1ccnc1[N+](=O)[O-] (some centres undefined) |  | > 100 µM |  | > 100 |  | > 100 µM |  | > 100 |  | > 100 µM |  | > 100 |  | > 100 µM |  | > 100 µM |  | > 100 µM |  | > 100 µM |
| Cc1cc2c(C(C)C)c(O)c(O)cc2c(O)c1-c1c(C)cc2c(C(C)C)c(O)c(O)cc2c1O | 13.6 | 83.4 µM | 10.6 | 44.9 | 12.3 | 27.6 µM | 16.8 | 32.8 | 16.4 | 30 µM | 20.8 | 68.6 | 16.5 | 34.9 µM | 8.03 | 20.6 µM | 13.5 | 34.8 µM | 13 | 30.2 µM |
